Assay results: patent US9029293B2, “Tobacco axillary bud inhibitor and tobacco axillary bud-inhibiting method” (priority 2011, dated 2015)

Columns and labels:
[1] = tested on: axillary buds of tobacco Tsukuba 1 (flue-cured cultivar); assay: Axillary bud growth inhibition, pot test in glasshouse, spraying after top pruning (flue-cured cultivar); assay type: in vivo, Nicotiana tabacum; conditions: 28 days after spraying
Description: (§1) Tobacco seedlings of Tsukuba 1 (flue-cured cultivar) and Michinoku 1 (burley cultivar) were transplanted to 1/5000a Wagner pots filled with Kureha garden nursery soil. The plants were grown in a glasshouse, and the floral axis parts were removed at the time of single-flower bloom of tobacco (top pruning).
(§2) The formulations of the inhibitors for tobacco axillary bud growth obtained in Formulation Examples 1 to 4 above were each diluted with water to predetermined concentrations, and 20 ml of the water-diluted solutions of the respective inhibitors were separately sprayed using a contact-type axillary bud inhibitor spraying instrument equipped with a spot exhaust nozzle (Examples 1 to 4 and 5 to 8). In addition, butralin (trade name: Blue Ribbon) (Comparative Examples 1 to 2 and 5 to 6) and decyl alcohol (trade name: Contact) (Comparative Examples 3 to 4 and 7 to 8) were used for tests as comparative examples in the same manner as above. In the cases of both the flue-cured cultivar and burley cultivar, one plant was planted per pot, and the tests were carried out in duplicate.
(§3) For the respective cases, states of inhibition of axillary bud growth 28 days after the spraying were investigated together with untreated groups sprayed with no inhibitor, and axillary bud growth inhibition ratios were calculated by the following equation. Axillary bud growth inhibition ratio=(fresh weight of axillary buds per plant of untreated group−fresh weight of axillary buds per plant of treated group)÷(fresh weight of axillary buds per plant of untreated group)×100 [Math. 1]
(§4) Formulation of Formulation Example 1 or Formulation Example 3 was diluted with water to predetermined concentrations and mixed with decyl alcohol (manufactured by Wako Pure Chemical Industries, Ltd.), 2-ethylhexanol (manufactured by Wako Pure Chemical Industries, Ltd.) or geraniol (manufactured by Wako Pure Chemical Industries, Ltd.) at predetermined concentrations, and the resultant was adjusted and used for tests (Examples 9 to 14 and 15 to 20). In addition, as comparative examples, the formulation of Formulation Example 1 or Formulation Example 3 diluted with water to predetermined concentrations (Comparative Examples 9 to 10 and 14 to 15) and decyl alcohol, 2-ethylhexanol or geraniol diluted with water to a predetermined concentration were used for tests (Comparative Examples 11 to 13 and 16 to 18).
(§5) The respective inhibitors were sprayed in the same manner as in Test Example 1, and states of inhibition of axillary bud growth 28 days after the spraying were investigated together with untreated groups sprayed with no inhibitor. Then, axillary bud growth inhibition ratios were calculated.

[2] = tested on: axillary buds of tobacco Michinoku 1 (burley cultivar); assay: Axillary bud growth inhibition, pot test in glasshouse, spraying after top pruning (burley cultivar); assay type: in vivo, Nicotiana tabacum; conditions: 28 days after spraying
Description: as §1, §2, §3, §4, §5

[3] = tested on: leaves (first to fourth from the top) of tobacco Michinoku 1 (burley cultivar); assay: Harmful effect of inhibitor on leaves (burley cultivar); design: species or system Nicotiana tabacum; conditions: in vivo
Description: as §1, §2
Further, the presence or absence of the harmful effect of each inhibitor was evaluated in one of the following four categories depending on the degrees of growth inhibition, gangrene, change in color, deformation and the like of leaves (first to fourth leaves from the top). […]

[4] = active ingredient 0.03%, 20 ml sprayed
[5] = active ingredient 0.35%, 20 ml sprayed
[6] = active ingredient 2.6%, 20 ml sprayed

Structure (SMILES) | Axillary bud growth inhibition ratio (%) ([1]; active ingredient 0.5%) | Axillary bud growth inhibition ratio (%) ([2]; active ingredient 0.5%) | Axillary bud growth inhibition ratio (%) [1, 4] | Axillary bud growth inhibition ratio (%) [2, 4] | Harmful effect of inhibitor [3] | Axillary bud growth inhibition ratio (%) ([1]; active ingredient 0.005%) | Axillary bud growth inhibition ratio (%) ([2]; active ingredient 0.005%) | also measured
CC(C)=CCC/C(C)=C/CO [Geraniol, geraniol] | 26% | 32% |  |  |  |  |  | 
CCCCC(CC)CO (centres unmarked) [2-ethylhexanol] | 21% | 28% |  |  |  |  |  | 
CCC(C)Nc1c([N+](=O)[O-])cc(C(C)(C)C)cc1[N+](=O)[O-] (centres unmarked) [Butralin, butralin] |  |  | 44% | 48% | Absent |  |  | Axillary bud growth inhibition ratio (%) [1, 5]: 98%; Axillary bud growth inhibition ratio (%) [2, 5]: 97%
CCCCCCCCCCO [Decyl Alcohol, decyl alcohol] | 30% | 37% | 0% | 0% | Absent |  |  | Axillary bud growth inhibition ratio (%) [1, 6]: 91%; Axillary bud growth inhibition ratio (%) [2, 6]: 94%
CSC(=O)c1c(C(F)F)nc(C(F)(F)F)c(C(=O)SC)c1CC(C)C [Dithiopyr, dithiopyr] |  |  |  |  |  | 75% | 78% | 
C#CC(C)(C)NC(=O)c1cc(Cl)cc(Cl)c1 [Propyzamide, propyzamide] |  |  |  |  |  | 70% | 72% | 
